Molecules are shown by their SMILES.

For one series, the target named is NDM-1 (Klebsiella pneumoniae, UniProt C7C422). Kind of series: biochemical. The format is biochemical. The note with it: CCF2-FA fluorescence assay, 2 hours at 25° C. The procedure: (§1) The Class B enzyme activities were measured in the presence of the test inhibitor in a fluorescence assay against a commercially available substrate consisting of a cephalosporin core linking 7-hydroxycoumarin to fluorescein (CCF2-FA). The enzyme (NDM-1, IMP-1 or VIM-1) and the substrate were diluted in 100 mM KH2PO4 buffer (pH 7) containing 0.005% Tween-20 and 10 μM ZnSO4. In the assay, the final concentration of enzyme was 1 pM, 2 pM and 30 pM for NDM-1, IMP-1 and VIM-1, respectively, and the final concentration of CCF2-FA was 1.25 μM. The test inhibitor was dissolved in dimethylsulfoxide and diluted 1:50 in the assay, resulting in a final concentration range of 20 μM to 0.00063 μM. In a 384-well microplate, the test inhibitor was incubated with the metallo-β-lactamase enzyme and the substrate for 2 hours at 25° C. Fluorescence at 460 nm following excitation at 405 nm was measured. The IC50 value was determined from semi-logarithmic plots of enzyme inhibition versus inhibitor concentration, with a curve generated using a 4-parameter fit.
Sequence of NDM-1 (C7C422 whole entry, looked up, species assumed): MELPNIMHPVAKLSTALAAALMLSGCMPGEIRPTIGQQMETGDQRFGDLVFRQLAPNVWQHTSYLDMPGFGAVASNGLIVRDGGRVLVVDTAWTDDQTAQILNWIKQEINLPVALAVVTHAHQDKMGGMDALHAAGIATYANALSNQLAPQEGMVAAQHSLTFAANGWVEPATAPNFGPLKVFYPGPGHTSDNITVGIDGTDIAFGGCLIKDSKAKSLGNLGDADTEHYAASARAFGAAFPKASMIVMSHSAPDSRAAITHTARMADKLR

Another series addresses IMP-1 (Serratia marcescens, UniProt P52699). Briefly: biochemical. The note with it: CCF2-FA fluorescence assay, 2 hours at 25° C.; read-out: IMP1 IC50. The protocol:
as §1

A further series deals with VIM-1 (Pseudomonas aeruginosa (strain ATCC 15692 / DSM 22644 / CIP 104116 / JCM 14847 / LMG 12228 / 1C / PRS 101 / PAO1), UniProt A0A0F7KYQ8). Kind of series: biochemical. The settings on record: CCF2-FA fluorescence assay, 2 hours at 25° C.; read-out: VIM1 IC50. The protocol:
as §1

The target of the next series is VIM-2 (Escherichia coli, UniProt Q5U7L7). Briefly: biochemical. The note with it: CCF2-FA fluorescence assay; read-out: VIM2 IC50.
Series [1] relates to Escherichia coli expressing NDM-1 (CLB30016). The format is cell-based. The settings on record: with imipenem 1 μg/ml; 95% inhibition of bacterial growth. The protocol: (§2) The bacterial strains tested included the clinical strains Escherichia coil expressing NDM-1 (CLB30005, CLB30016), Serratia marcescens expressing IMP-1 (CL5741), and Klebsiella pneumoniae expressing VIM-1 (H-LMA599644). Inhibitor activity was measured in the presence and absence of imipenem in a 384-well microplate.
(§3) The clinical strains CLB30016, CL5741 and IHMA599644 were grown on trypticase soy agar containing 5% sheep's blood. The bacteria on agar plates were incubated at 35° C. with humidity overnight. The following day, individual colonies from each clinical strain were picked and resuspended in 5 ml saline to attain an OD600 of […], for CLB30016, C15741 and IHMA599644, respectively. These were further diluted 1:100 into 1.1× CAMHB and used to inoculate the test wells as described below.
(§4) Imipenem in 10 mM 3-(N-morpholino)propanesulfonic acid (MOPS, pH 7) was stored in single use aliquots at −80° C. […] On the day of the assay, 4 μl of antibiotic was added to 45 μl of bacteria followed by 1 μl of test compound and mixed by pipetting and with an orbital shaker. The concentration of antibiotic used in the assay was 1 μg/ml. Microplates were covered and incubated at 35° C. for 22 hours to 24 hours. At the end of the incubation, absorbance was determined using a spectrophotometer. The synergistic concentration of MBLI was determined by identifying the lowest concentration of test compound in the presence of a given concentration of antibiotic that was required to inhibit 95% of the growth of the bacteria. The results for Examples 1-209 are reported in Table 1, expressed as the concentration of compound that potentiated the action of antibiotic (imipenem) affecting 95% inhibition of bacterial growth (MITC95).

Series [2] concerns Klebsiella pneumoniae expressing VIM-1 (IHMA599644). It is filed as cell-based. The settings on record: with imipenem 1 μg/ml; 95% inhibition of bacterial growth. The protocol:
as §2, §3, §4

Series [3] deals with Serratia marcescens expressing IMP-1 (CL5741). It is filed as cell-based. The settings on record: with imipenem 1 μg/ml; 95% inhibition of bacterial growth. The procedure:
as §2, §3, §4

The subject of series [4] is P. aeruginosa MB9798 (efflux+, IMP-1 plasmid). The settings on record: for MB9798 MITC95 P. aeruginosa uM Efflux WT: efflux + (MB9798) strain, imipenem at 2 μg/mL, in the presence of a class A, C, D serine β-lactamase inhibitor closely related to relebactam; for Efflux ratio: fold difference between efflux+ (MB9798) and efflux− (MB9799) strains. The source says:
(§5) The strain background is Pseudomonas aeruginosa PAO1. A wild-type (M135919) and an isogenic strain in which multiple efflux pumps have been disrupted genetically were used. The MBL IMP-1, obtained from a clinical isolate was introduced into the strain pair by the following process:
(§6) The plasmid DNA was transformed into parental MB5919 (oprD+, efflux+, inducible AmpC) and MB5890 (oprD+, efflux−, inducible AmpC) isogenic strains by electroporation.
(§7) The strain set was then used as a pair to determine the effect of metallo-β-lactamase inhibitors of Formula I on the MIC of imipenem and/or ceftazidime. A fixed concentration of antibiotic is included in standard microbroth MIC tests, usually at the CLSI breakpoint concentration, A fixed amount of a class A/C beta-lactamase inhibitor is also included to inhibit the resident Pseudomonas AmpC enzyme. A serial titration of the metallo-β-lactamase inhibitor was included and the concentration of metallo-β-lactamase inhibitor which restores susceptibility of the strain to the included antibiotic was recorded. That concentration of metallo-β-lactamase inhibitor was then compared between the two strains to determine the fold difference between the efflux+(MB9798) and efflux−(MI39799) strains, which indicates the extent to which the MBLi is subject to efflux.

Series [5] relates to P. aeruginosa MB9799 (efflux-, IMP-1 plasmid). The format is cell-based, Pseudomonas aeruginosa. The settings on record: efflux − (MB9799) strain; imipenem at 2 μg/mL; in the presence of a class A, C, D serine β-lactamase inhibitor closely related to relebactam.
Source text: as §5, §6, §7

Sequence of IMP-1 (P52699 whole entry, looked up, species assumed): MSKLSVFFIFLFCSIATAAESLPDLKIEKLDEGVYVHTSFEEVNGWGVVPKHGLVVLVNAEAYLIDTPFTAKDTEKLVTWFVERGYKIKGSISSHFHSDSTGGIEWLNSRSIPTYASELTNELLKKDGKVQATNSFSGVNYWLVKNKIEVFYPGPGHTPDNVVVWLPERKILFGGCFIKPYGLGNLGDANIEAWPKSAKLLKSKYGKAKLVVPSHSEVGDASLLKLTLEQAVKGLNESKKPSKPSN

`NCCNS(=O)(=O)c1ccc(N2CCC(CO)CC2)c(-c2nnn[nH]2)c1S(N)(=O)=O` [Example 43, N1-(2-aminoethyl)-4-(4-(hydroxymethyl)piperidin-1-yl)-3-(1H-tetrazol-5-yl)benzene-1,2-disulfonamide]: the IC50 against NDM-1 is 0.51 nM; on IMP-1, 0.58 nM; on VIM-1, 0.19 nM; at VIM-2, 0.61 nM. Also, the “CLB30016 E. coli MITC95 NDM” value in series [1] is 1.56 µM. Besides, the “IHMA599644 K. pneumoniae MITC95 VIM” value in series [2] is 6.25 µM. For the same compound, the “CL5741 S. marcescens MITC95 IMP” value in series [3] came to 1.56 µM. Besides, in [4], the “MB9798 MITC95 P. aeruginosa uM Efflux WT” value was found to be 1.56 µM. Further, in series [4], the Efflux ratio was 1.00. Further, the “MB9799 MITC95 P. aeruginosa uM Efflux Mutant” value in series [5] is 1.56 µM.

On to `NC[C@@H](O)CNS(=O)(=O)c1ccc(N2CCC3(CCNC3)C2)c(-c2nn[nH]n2)c1S(N)(=O)=O` (stereo partly shown) [Example 133, di-trifluoroacetic acid], for which the IC50 against NDM-1 was 12.7 nM; on IMP-1, 24 nM; at VIM-1, 2.07 nM; at VIM-2, 57.9 nM. Moreover, the “CLB30016 E. coli MITC95 NDM” value in series [1] turned out to be 0.78 µM. Also, in series [2], the “IHMA599644 K. pneumoniae MITC95 VIM” value amounted to 0.78 µM. The “CL5741 S. marcescens MITC95 IMP” value in series [3] is 1.56 µM. Moreover, in series [4], the “MB9798 MITC95 P. aeruginosa uM Efflux WT” value was 3.13 µM. Also, the Efflux ratio in [4] was determined as 2.00. For the same compound, the “MB9799 MITC95 P. aeruginosa uM Efflux Mutant” value in [5] was 1.56 µM.

`CN1CCN(c2ccc(S(=O)(=O)N[C@@H]3CCNC3)c(S(N)(=O)=O)c2-c2nnn[nH]2)CC1=O` [Example 65, 4-(4-methyl-3-oxopiperazin-1-yl)-N1-[(3R)-pyrrolidin-3-yl]-3-(1H-tetrazol-5-yl)benzene-1,2-disulfonamide]: the IC50 against NDM-1 was found to be 1.28 nM; at IMP-1, 2.26 nM; at VIM-1 it was 0.22 nM; on VIM-2, 1 nM. Besides, the “CLB30016 E. coli MITC95 NDM” value in series [1] was found to be 3.13 µM. Also, the “IHMA599644 K. pneumoniae MITC95 VIM” value in [2] is 6.25 µM. In [3], the “CL5741 S. marcescens MITC95 IMP” value was determined as 3.13 µM. The “MB9798 MITC95 P. aeruginosa uM Efflux WT” value in series [4] was found to be 3.13 µM. The Efflux ratio in series [4] worked out at 2.00. Also, the “MB9799 MITC95 P. aeruginosa uM Efflux Mutant” value in series [5] turned out to be 1.56 µM.

For `C[C@H](CN)NS(=O)(=O)c1ccc(N2CCC(CCN)CC2)c(-c2nn[nH]n2)c1S(N)(=O)=O` [Example 185, (R)-4-(4-(2-aminoethyl)piperidin-1-yl)-N1-(1-aminopropan-2-yl)-3-(2H-tetrazol-5-yl)benzene-1,2-disulfonamide], the IC50 is 0.33 nM at NDM-1, 0.6 nM at IMP-1, 0.04 nM on VIM-1 and 0.71 nM on VIM-2. The “CLB30016 E. coli MITC95 NDM” value in series [1] is 0.78 µM. The “IHMA599644 K. pneumoniae MITC95 VIM” value in [2] worked out at 1.56 µM. Also, in series [3], the “CL5741 S. marcescens MITC95 IMP” value was 1.56 µM. Further, the “MB9798 MITC95 P. aeruginosa uM Efflux WT” value in series [4] was found to be 0.78 µM. Also, in series [4], the Efflux ratio is listed as 1.00. The “MB9799 MITC95 P. aeruginosa uM Efflux Mutant” value in [5] is 0.78 µM.

For `NCC1CCN(c2ccc(S(=O)(=O)N[C@@H]3CCNC3)c(S(N)(=O)=O)c2-c2nn[nH]n2)CCN1` (stereo partly shown) [Example 163], the half-maximal inhibitory concentration (IC50) was found to be 49 nM on IMP-1, 0.74 nM on VIM-1 and 52.9 nM at VIM-2. In series [1], the “CLB30016 E. coli MITC95 NDM” value stood at 0.39 µM. The “IHMA599644 K. pneumoniae MITC95 VIM” value in series [2] stood at 1.56 µM. Moreover, the “CL5741 S. marcescens MITC95 IMP” value in series [3] is 1.56 µM. For the same compound, the “MB9798 MITC95 P. aeruginosa uM Efflux WT” value in [4] amounted to 6.25 µM. Besides, in series [4], the Efflux ratio came to 2.00. In series [5], the “MB9799 MITC95 P. aeruginosa uM Efflux Mutant” value was 3.13 µM.

As to `NC[C@@H](O)CNS(=O)(=O)c1ccc(N2CC[C@H](CN)C2)c(-c2nn[nH]n2)c1S(N)(=O)=O` [Example 124, N1-((R)-3-amino-2-hydroxypropyl)-4-((R)-3-(aminomethyl)pyrrolidin-1-yl)-3-(2H-tetrazol-5-yl)benzene-1,2-disulfonamide], the values for the half-inhibitory concentration (IC50) at IMP-1, at VIM-1 and at VIM-2 were 23.1 nM, 3.18 nM and 37.2 nM, respectively. Moreover, the “CLB30016 E. coli MITC95 NDM” value in series [1] was determined as 0.39 µM. Further, the “IHMA599644 K. pneumoniae MITC95 VIM” value in series [2] worked out at 0.78 µM. For the same compound, the “CL5741 S. marcescens MITC95 IMP” value in [3] amounted to 0.78 µM. Moreover, the “MB9798 MITC95 P. aeruginosa uM Efflux WT” value in [4] turned out to be 3.13 µM. Also, in [4], the Efflux ratio is reported as 2.00. For the same compound, the “MB9799 MITC95 P. aeruginosa uM Efflux Mutant” value in series [5] came out at 1.56 µM.

Take `NC[C@@H](O)CNS(=O)(=O)c1ccc(N2CC[C@@H](N)[C@@H](F)C2)c(-c2nn[nH]n2)c1S(N)(=O)=O` (single isomer, unassigned) [Example 1]: the half-maximal inhibitory concentration (IC50) at IMP-1 is 5.02 nM; at VIM-1, 0.31 nM; on VIM-2 it was 3.58 nM. Besides, the “CLB30016 E. coli MITC95 NDM” value in series [1] was 0.10 µM. In addition, in series [2], the “IHMA599644 K. pneumoniae MITC95 VIM” value was 0.39 µM. Besides, in series [3], the “CL5741 S. marcescens MITC95 IMP” value was found to be 0.20 µM. Besides, the “MB9798 MITC95 P. aeruginosa uM Efflux WT” value in series [4] stood at 0.78 µM. For the same compound, the Efflux ratio in series [4] was 2.00. Further, the “MB9799 MITC95 P. aeruginosa uM Efflux Mutant” value in series [5] amounted to 0.39 µM.

Regarding `NC[C@@H](O)CNS(=O)(=O)c1ccc(Nc2ncc[nH]2)c(-c2nn[nH]n2)c1S(N)(=O)=O` [Example 203, (R)-4-((1H-imidazol-2-yl)amino)-N1-(3-amino-2-hydroxypropyl)-3-(2-tetrazol-5-yl)benzene-1,2-disulfonamide bis(2,2,2-trifluoroacetate)], the figures for the 50% inhibitory concentration (IC50) on IMP-1, at VIM-1 and at VIM-2 were 26.4 nM, 8.5 nM and 19.6 nM, respectively. Also, the “CLB30016 E. coli MITC95 NDM” value in series [1] amounted to 0.20 µM. In addition, in series [2], the “IHMA599644 K. pneumoniae MITC95 VIM” value amounted to 0.78 µM. Further, in [3], the “CL5741 S. marcescens MITC95 IMP” value is 0.78 µM. The “MB9798 MITC95 P. aeruginosa uM Efflux WT” value in series [4] was determined as 3.13 µM. The Efflux ratio in series [4] was found to be 2.00. The “MB9799 MITC95 P. aeruginosa uM Efflux Mutant” value in series [5] turned out to be 1.56 µM.

Source of the values: patent US11207312B2, “Metallo-beta-lactamase inhibitors and methods of use thereof” (priority 2017, dated 2021).
